This is an account of results in patent publication US9296758B2, “2-quinolinyl-acetic acid derivatives as HIV antiviral compounds” (GILEAD SCIENCES, INC., priority 2010, dated 2016).

SMILES strings stand for the structures.

One experiment deals with HIV-IIIb. The experiment is described as follows: Test A: Antiviral Assays in MT4 Cells. Particulars: Human immunodeficiency virus 1, IIIB, MT4, 120 h, MT-4 cells infected with HIV-IIIb (0.004 m.o.i.), 5 days of incubation, CellTiter-Glo chemiluminescence readout. Format: cell-based. As to the method: Test A: Antiviral Assays in MT4 Cells For the antiviral assay utilizing MT-4 cells, 0.4 μL of 189X test concentration of 3-fold serially diluted compound in DMSO was added to 40 μL of cell growth medium (RPMI 1640, 10% FBS, 1% penicillin/Streptomycin, 1% L-Glutamine, 1% HEPES) in each well of 384-well assay plates (10 concentrations) in quadruplicate. 1 mL aliquots of 2×10e6 MT-4 cells are pre-infected for 1 and 3 hrs respectively, @ 37° C. with 25 μL (MT4) or of either cell growth medium (mock-infected) or a fresh 1:250 dilution of an HIV-IIIb concentrated ABI stock (0.004 m.o.i. for MT4 cells). Infected and uninfected cells are diluted in cell growth medium and 35 uL of 2000 (for MT4) cells is added to each well of the assay plates. Assay plates were then incubated in a 37° C. incubator. After 5 days of incubation, 25 μl of 2× concentrated CellTiter-Glo™ Reagent (catalog #G7573, Promega Biosciences, Inc., Madison, Wis.) was added to each well of the assay plate. Cell lysis was carried out by incubating at room temperature for 2-3 min and then chemiluminescence was read using the Envision reader (PerkinElmer).
On the technique in general: Cellular ATP, detected with luciferase, serves as a proxy for viable cell number.
As a reminder, the EC50 is the concentration needed to bring the measured effect to its halfway point. Read a high EC50 as a less potent agent. In the case of `Cc1cc2nc(C#CC3CC3)ccc2c(-c2ccc(Cl)cc2)c1[C@H](OC(C)(C)C)C(=O)O` [Compound 38, (S)-2-tert-butoxy-2-(5-(4-chlorophenyl)-2-(cyclopropylethynyl)-7-methylquinolin-6-yl)acetic acid], the concentration for a half-maximal effect (EC50) stood at 68 nM.

With `Cc1cc2nc(-c3cncnc3)ccc2c(-c2ccc(Cl)cc2)c1[C@H](OC(C)(C)C)C(=O)O` [Compound 87, (S)-2-tert-Butoxy-2-(5-(4-chlorophenyl)-7-methyl-2-(pyrimidin-5-yl)quinolin-6-yl)acetic acid], a half-maximal effect (EC50) was put at 175 nM. This EC50 is about 2.6-fold higher than that of the compound before.

With `Cc1cc2nc(CCC3CC3)ccc2c(-c2ccc3c4c(ccnc24)CCO3)c1[C@H](OC(C)(C)C)C(=O)O` (atropisomer, axis not shown) [Compound 43, (S)-2-tert-Butoxy-2-((R)-2-(2-cyclopropylethyl)-5-(2,3-dihydropyrano[4,3,2-de]quinolin-7-yl)-7-methylquinolin-6-yl)acetic acid], the 50% effective concentration (EC50) came to 27 nM.

On to `Cc1cc2nc(-c3cn(C)cn3)ccc2c(-c2ccc3c4c(ccnc24)CCO3)c1[C@H](OC(C)(C)C)C(=O)O` (atropisomer, axis not shown) [Compound 85, (S)-2-tert-butoxy-2-((R)-5-(2,3-dihydropyrano[4,3,2-de]quinolin-7-yl)-7-methyl-2-(1-methyl-1H-imidazol-4-yl)quinolin-6-yl)acetic acid], for which the half-maximal effective concentration (EC50) amounted to 131 nM.

Regarding `Cc1cc2nc(-c3nccn3C)ccc2c(-c2ccc3c4c(ccnc24)CCO3)c1[C@H](OC(C)(C)C)C(=O)O` (atropisomer, axis not shown) [Compound 84, (S)-2-tert-Butoxy-2-((R)-5-(2,3-dihydropyrano[4,3,2-de]quinolin-7-yl)-7-methyl-2-(1-methyl-1H-imidazol-2-yl)quinolin-6-yl)acetic acid], the concentration for a half-maximal effect (EC50) was found to be 330 nM.

As to `CCN(C)c1ccc2c(-c3ccc4c5c(ccnc35)CCO4)c([C@H](OC(C)(C)C)C(=O)O)c(C)cc2n1` [Compound 93, (S)-2-tert-Butoxy-2-((R)-5-(2,3-dihydropyrano[4,3,2-de]quinolin-7-yl)-2-(ethyl(methyl)amino)-7-methylquinolin-6-yl)acetic acid], a half-maximal response (EC50) required 94 nM.

The compound `Cc1cc2nc(-c3ccccn3)ccc2c(-c2ccc3c4c(ccnc24)CCO3)c1[C@H](OC(C)(C)C)C(=O)O` (atropisomer, axis not shown) [Compound 80, (S)-2-tert-Butoxy-2-((R)-5-(2,3-dihydropyrano[4,3,2-de]quinolin-7-yl)-7-methyl-2-(pyridin-2-yl)quinolin-6-yl)acetic acid] registered a concentration for a half-maximal effect (EC50) of 52 nM.

As to `Cc1cc2c(ccc3nc(-c4ccccc4)cn32)c(-c2ccc3c4c(ccnc24)CCO3)c1[C@H](OC(C)(C)C)C(=O)O` (atropisomer, axis not shown) [Compound 61, (S)-2-tert-Butoxy-2-((R)-6-(2,3-dihydropyrano[4,3,2-de]quinolin-7-yl)-8-methyl-2-phenylimidazo[1,2-a]quinolin-7-yl)acetic acid], the half-maximal effective concentration (EC50) amounted to 119 nM.

In turn, `Cc1cc2nc(CCc3ccccc3)ccc2c(-c2ccc3c4c(ccnc24)CCO3)c1[C@H](OC(C)(C)C)C(=O)O` (atropisomer, axis not shown) [Compound 41, (S)-2-tert-butoxy-2-((R)-5-(2,3-dihydropyrano[4,3,2-de]quinolin-7-yl)-7-methyl-2-phenethylquinolin-6-yl)acetic acid] gave a concentration for a half-maximal effect (EC50) of 26 nM.

In turn, `Cc1cc2nc(CC(C)C)ccc2c(-c2ccc3c4c(ccnc24)CCO3)c1[C@H](OC(C)(C)C)C(=O)O` (atropisomer, axis not shown) [Compound 50, (S)-2-tert-butoxy-2-((R)-5-(2,3-dihydropyrano[4,3,2-de]quinolin-7-yl)-2-isobutyl-7-methylquinolin-6-yl)acetic acid] registered a half-maximal effective concentration (EC50) of 24 nM. This EC50 and that of the compound before are within 1.5-fold of each other.

Still in this experiment, the particulars now being: MT-4 cells infected with HIV-IIIb (0.004 m.o.i.), 5 days of incubation, CellTiter-Glo chemiluminescence readout.
Take `Cc1ccc2c(-c3ccc4c5c(cccc35)CCO4)c([C@H](OC(C)(C)C)C(=O)O)c(C)cc2n1` (single isomer, unassigned) [Compound 102A]: the concentration giving a half-maximal response (EC50) is 13 nM.

In the case of `Cc1ccc2c(-c3ccc(Cl)cc3Cl)c([C@H](OC(C)(C)C)C(=O)O)c(C)cc2n1` [Compound 104], the midpoint of the response, the EC50, lay at 720 nM.
